Source: PubChem BioAssay (NCI)
Where “and” joins values, the source holds several entries; their conditions need not be identical. Identical values can stand only once.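 Where inhibition never reached the appropriate level, the endpoint shown equals the highest concentration tested. Otherwise, values were interpolated linearly from a five-concentration, 48-hour dose response in 96-well plates. The concentration for 50% growth inhibition is given as GI50. TGI denotes the concentration required for complete inhibition of growth.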

Assays:
Test in all cases: growth of human tumour cells (NCI), 48 h
786-0 renal = tested on: 786-0 renal
HCT-116 colon = tested on: HCT-116 colon
HCT-15 colon = tested on: HCT-15 colon
KM12 colon = tested on: KM12 colon
RXF 393 renal = tested on: RXF 393 renal
SF-295 CNS = tested on: SF-295 CNS
UACC-62 melanoma = tested on: UACC-62 melanoma
UO-31 renal = tested on: UO-31 renal
HOP-92 NSCLC = tested on: HOP-92 NSCLC
MDA-MB-435 = tested on: MDA-MB-435

| Compound | TGI (786-0 renal) | TGI (HCT-116 colon) | TGI (HCT-15 colon) | TGI (KM12 colon) | TGI (RXF 393 renal) | TGI (SF-295 CNS) [µM] | TGI (UACC-62 melanoma) | TGI (UO-31 renal) | TGI (HOP-92 NSCLC) [µM] | TGI (MDA-MB-435) [µM] | GI50 (786-0 renal) [µM] | GI50 (HCT-116 colon) [µM] | GI50 (KM12 colon) [µM] | GI50 (RXF 393 renal) [µM] | GI50 (SF-295 CNS) [µM] | GI50 (UACC-62 melanoma) [µM] | GI50 (UO-31 renal) [µM] | GI50 (HOP-92 NSCLC) [µM] | GI50 (HCT-15 colon) [µM] |
| --- | --- | --- | --- | --- | --- | --- | --- | --- | --- | --- | --- | --- | --- | --- | --- | --- | --- | --- | --- |
| COc1cccc(C(=O)O)c1Cc1cccc2ccccc12 | > 100 µM | > 100 µM | > 100 µM | > 100 µM | > 100 µM | > 100 | > 100 µM | > 100 µM | – | – | – | – | – | – | – | – | – | – | – |
| C/C(=C\c1ccccc1)C(O)S(=O)(=O)O (configuration not stated) | > 100 µM | > 100 µM | > 100 µM | > 100 µM | > 100 µM | > 100 | > 100 µM | > 100 µM | – | – | – | – | – | – | – | – | – | – | – |
| CC(=O)N1C(=O)C(=O)c2cc(Cl)ccc21 | > 100 µM | – | > 100 µM | > 100 µM | > 100 µM | > 100 | > 100 µM | > 100 µM | – | – | – | – | – | – | – | – | – | – | – |
| O=C1c2ccccc2C(=O)N1C/C=N/NS(=O)(=O)c1ccc(Cl)cc1 | > 100 µM | > 100 µM | > 100 µM | – | – | > 100 | > 100 µM | > 100 µM | – | – | – | – | – | – | – | – | – | – | – |
| CN1C(=O)NC2(O)c3ccccc3C(=O)C12O (configuration not stated) | > 100 µM | > 100 µM | > 100 µM | > 100 µM | – | > 100 | > 100 µM | > 100 µM | > 100 | – | – | – | – | – | – | – | – | – | – |
| CCCC(=O)C(CC)/C(CCC(=O)N(Cc1ccccc1)Cc1ccccc1)=N/NC(=O)C[N+](C)(C)C (configuration not stated) | > 100 µM | > 100 µM | – | > 100 µM | > 100 µM | > 100 | – | > 100 µM | > 100 | – | – | – | – | – | – | – | – | – | – |
| CCC1N2CCCCC2[C@@H]2c3[nH]c4ccccc4c3CCN12 (some centres not stated) | > 100 µM | > 100 µM | > 100 µM | – | > 100 µM | > 100 | > 100 µM | > 100 µM | > 100 | – | – | – | – | – | – | – | – | – | – |
| NCC(=O)OCN1C(=O)C2C3C=CC(C2C1=O)C1C2C(=O)N(COC(=O)CN)C(=O)C2C31 (configuration not stated) | 40.7 µM and 36.8 µM | 33.6 µM and 30.7 µM | 36.9 µM and 34.8 µM | 48.4 µM and 42.2 µM | 37.9 µM and 42.3 µM | > 100 | 50.5 µM and 56 µM | 97.7 µM and > 100 µM | > 100 | – | – | – | – | – | – | – | – | – | – |
| COc1cc([N+](=O)[O-])c(S(=O)(=O)O)cc1-n1nc(-c2ccccc2)n[n+]1-c1cc(S(=O)(=O)[O-])c([N+](=O)[O-])cc1OC | > 100 µM | > 100 µM | > 100 µM | > 100 µM | > 100 µM | > 100 | > 100 µM | > 100 µM | – | > 100 | – | – | – | – | – | – | – | – | – |
| COc1cc(C(C)c2cc3c(cc2OCCOCCOc2cc4c(cc2C(C)c2cc(OC)c(OC)c(OC)c2)OCO4)OCO3)cc(OC)c1OC (configuration not stated) | > 100 µM | > 100 µM | > 10 µM | > 100 µM | > 100 µM | > 100 | > 100 µM | > 100 µM | > 100 | – | > 100 | > 100 | > 100 | > 100 | > 10 | > 100 | > 10 | – | – |
| C=CCCC12CCCC(=O)C1Sc1ccc3ccccc3c12 (configuration not stated) | 48.2 µM | – | 37.5 µM | 31.2 µM | 26.2 µM | 51.2 | 40 µM | 42.5 µM | – | – | – | – | – | – | – | – | – | – | – |
| COc1cc2c(C#N)n3c(c2cc1OC)C(=O)C(c1ccccc1)Oc1ccccc1-3 (configuration not stated) | 39.1 µM | > 100 µM | – | > 100 µM | 19.5 µM | > 100 | – | – | 5.52 | – | 5.7 | 3.23 | 3.36 | 3.29 | 4.1 | – | – | 1.46 | – |
| CCCCCCCCCCSS(=O)(=O)c1ccc(C)cc1 | 17.8 µM | 26.8 µM | 28.2 µM | 30.4 µM | 32.4 µM | 18.1 | 16.1 µM | 29 µM | 27.2 | – | – | – | – | – | – | – | – | – | – |
| CC(=O)[CH-]C(=O)c1ccccc1.CC(=O)[CH-]C(=O)c1ccccc1.CC(C)CCCC(C)[C@H]1CCC2[C@@H]3CCC4C[C@@H]([O-])CC[C@]4(C)C3CC[C@@]21C.CC(C)CCCC(C)[C@H]1CCC2[C@@H]3CCC4C[C@@H]([O-])CC[C@]4(C)C3CC[C@@]21C.Cl.[Ti+4] (some centres not stated) | > 25 µM | > 25 µM | > 25 µM | > 25 µM | > 25 µM | > 25 | > 25 µM | > 25 µM | – | – | > 25 | > 25 | > 25 | > 25 | > 25 | > 25 | > 25 | – | > 25 |
| CC(C)[C@H](COC(C)(C)C)N=CN1CSc2ccccc21 | > 100 µM | 79.2 µM | > 100 µM | > 100 µM | 95.2 µM | 67.4 | > 100 µM | > 100 µM | 41.9 | – | – | – | – | – | – | – | – | – | – |
| COc1ccc2c(CCNS(=O)(=O)c3ccccc3)c(C(C)=O)[nH]c2c1[N+](=O)[O-] | > 100 µM | > 100 µM | > 100 µM | > 100 µM | – | > 100 | > 100 µM | > 100 µM | – | – | – | – | – | – | – | – | – | – | – |
| COC(=O)/C=C\C1C(C(=O)OC)C2(C(=O)OC)CCC1(C(=O)OC)N2 (configuration not stated) | 28.6 µM | 27.6 µM | 11.2 µM | 36.7 µM | 19.7 µM | 44.8 | 29.8 µM | 30.8 µM | 19.6 | – | – | – | – | – | – | – | – | – | – |
| O=c1c2cc(-c3ccccc3)sc2nc2sc(-c3ccccc3)nn12 | > 100 µM | > 100 µM | > 100 µM | > 100 µM | > 100 µM | > 100 | > 100 µM | > 100 µM | > 100 | – | – | – | – | – | – | – | – | – | – |
| Cc1ccc(S(=O)(=O)NC(C)C(=O)O)cc1 (configuration not stated) | > 100 µM | – | > 100 µM | > 100 µM | > 100 µM | > 100 | > 100 µM | > 100 µM | > 100 | – | – | – | – | – | – | – | – | – | – |
| COC(=O)c1c(C(=O)OC)c(C(=O)OC)c(C(=O)OC)c1C(=O)OC | > 100 µM | – | > 100 µM | > 100 µM | > 100 µM | > 100 | > 100 µM | > 100 µM | > 100 | – | – | – | – | – | – | – | – | – | – |
| C#Cc1cccc(N2C(=O)CC(=P(c3ccccc3)(c3ccccc3)c3ccccc3)C2=O)c1 | 75.7 µM | > 100 µM | – | – | – | > 100 | > 100 µM | > 100 µM | – | – | – | – | – | – | – | – | – | – | – |
| CN1NC(c2ccccc2)=C(C#N)C(=O)CC1c1ccccc1Cl (configuration not stated) | > 100 µM | > 100 µM | > 100 µM | > 100 µM | > 100 µM | > 100 | – | – | > 100 | – | – | – | – | – | – | – | – | – | – |
